Measured values published in patent publication US20080033017A1, “COMPOSITIONS FOR ENHANCED ACARICIDAL ACTIVITY” (priority 2000, published 2008).
Several values for one entry are separate records, joined by “and”; a condition that tells them apart may be missing. Equal values may be shown once.

Tests used:
R. SANGUINEUS = test: Comparative tick control on dogs, R. sanguineus, percent control; format: in vivo, Rhipicephalus sanguineus; design: Percent control R. sanguineus: concentration or dose not given beside the values
Excerpt: (§1) The purpose of this study was to was to determine comparative flea and tick control over a 30 day interval of a combination application of a pyrethroid and a chloronicotinyl insecticide applied dermally to dogs. This combination was compared with permethrin alone, imidacloprid alone, fipronil and selamectin. The latter two compounds are present in products that currently carry claims for both tick and flea control
(§2) Thirty-six dogs were divided into six groups of 6 dogs per group. Each dog received a single topically-applied treatment of the either “Kiltix”, a product available from Bayer Corporation containing 45% w/w permethrin, Advantage®, a product available from Bayer Corporation containing 9.1% w/w imidacloprid, a combination of Kiltix and Advantage containing 45% w/w permethrin+9.1% w/w imidacloprid, Top Spot), a product available from Merial containing 9.7% fipronil or Revolution®, a product available from Pfizer Inc. containing 12% w/v selamectin in accordance with the appropriate dose and label instructions for the various product applications. Control dogs remained untreated. All products were provided in the commercial unit dose applicator tubes.
(§3) The dogs were bathed with a mild non-medicated shampoo and thoroughly combed to remove any existing fleas or ticks 7 to 14 days prior to treatment. The dogs were infested with 100 unfed adult ticks (50 Dermacentor variabilis and 50 Rhipiciphalus sanguineus) and 100 unfed adult fleas on Day −3. Live fleas and ticks were counted on Day −1. The dogs were ranked according to total pretreatment live tick counts from highest to lowest. The 36 dogs with the highest counts were selected for the study. Each consecutive group of 6 dogs comprised one block. Treatment was randomly assigned within each block of dogs.
(§4) Each dog was examined visually for fleas and ticks on Days 1, 7, 14, 21, and 28 following treatment. The hair was parted with the thumbs and fingers to count fleas and ticks. Live tick counts were recorded by species. Live ticks only were counted visually on Days 2, 8, 15, 22, and 29. The dogs were combed on Days 3, 9, 16, 23, and 30. All remaining live fleas and ticks were counted and removed.

D. VARIABILIS = test: Comparative tick control on dogs, D. variabilis, percent control; format: in vivo, Dermacentor variabilis; design: concentration or dose not given beside the values
Excerpt: as §1, §2, §3, §4

FLEAS (Siphoneptera) = test: Comparative flea control on dogs, percent control; format: in vivo; design: Percent control fleas: concentration or dose not given beside the values
Excerpt: as §1, §2, §3, §4

[1] = test system: both species of ticks (D. variabilis and R. sanguineus); test: Tick control on dogs, both species together; format: in vivo, Dermacentor variabilis and Rhipicephalus sanguineus; conditions: single topical treatment
Excerpt: as §1
Thirty-six dogs were divided into six groups of 6 dogs per group. […]
The dogs were bathed with a mild non-medicated shampoo and thoroughly combed to remove any existing fleas or ticks 7 to 14 days prior to treatment. […] Live fleas and ticks were counted on Day −1. […]
Each dog was examined visually for fleas and ticks on Days 1, 7, 14, 21, and 28 following treatment. […] Live tick counts were recorded by species. Live ticks only were counted visually on Days 2, 8, 15, 22, and 29. […] All remaining live fleas and ticks were counted and removed.

[2] = Study Day 1, single topical treatment
[3] = Study Day 2, single topical treatment
[4] = Study Day 3, single topical treatment
[5] = Study Day 7, single topical treatment
[6] = Study Day 8, single topical treatment
[7] = Study Day 9, single topical treatment
[8] = Study Day 14, single topical treatment
[9] = Study Day 15, single topical treatment
[10] = Study Day 16, single topical treatment
[11] = Study Day 21, single topical treatment
[12] = Study Day 22, single topical treatment
[13] = Study Day 23, single topical treatment
[14] = Study Day 28, single topical treatment
[15] = Day 1, single topical treatment
[16] = Day 3, single topical treatment
[17] = Day 7, single topical treatment
[18] = Day 9, single topical treatment
[19] = Day 14, single topical treatment
[20] = Day 16, single topical treatment
[21] = Day 21, single topical treatment
[22] = Day 23, single topical treatment
[23] = Day 28, single topical treatment
[24] = Day 30, single topical treatment

CO[C@H]1C[C@H](O[C@@H]2/C(C)=C/C[C@@H]3C[C@@H](C[C@]4(CC[C@H](C)[C@@H](C5CCCCC5)O4)O3)OC(=O)[C@@H]3C=C(C)/C(=N/O)[C@H]4OC/C(=C\C=C\[C@@H]2C)[C@]43O)O[C@@H](C)[C@@H]1O [Selamectin, selamectin]
Percent control R. sanguineus (R. SANGUINEUS; [2]): −13.1%
Percent control R. sanguineus (R. SANGUINEUS; [3]): 48.5%
Percent control R. sanguineus (R. SANGUINEUS; [4]): 87% and 87.4%
Percent control R. sanguineus (R. SANGUINEUS; [5]): 83.9%
Percent control R. sanguineus (R. SANGUINEUS; [6]): 83.6%
Percent control R. sanguineus (R. SANGUINEUS; [7]): 95.6%
Percent control R. sanguineus (R. SANGUINEUS; [8]): 21.5%
Percent control R. sanguineus (R. SANGUINEUS; [9]): 46.0%
Percent control R. sanguineus (R. SANGUINEUS; [10]): 70.9%
Percent control R. sanguineus (R. SANGUINEUS; [11]): −7.0%
Percent control R. sanguineus (R. SANGUINEUS; [12]): −2.2%
Percent control R. sanguineus (R. SANGUINEUS; [13]): 8.2%
Percent control R. sanguineus (R. SANGUINEUS; [14]): −16.0%
tick killing of R. sanguineus (in words) (R. SANGUINEUS; by day 16 post application): negligent
Percent control D. variabilis (D. VARIABILIS; [2]): 26.2%
Percent control D. variabilis (D. VARIABILIS; [3]): 46.7%
Percent control D. variabilis (D. VARIABILIS; [4]): 70.8%
Percent control D. variabilis (D. VARIABILIS; [5]): 23.1%
Percent control D. variabilis (D. VARIABILIS; [6]): 61.2%
Percent control D. variabilis (D. VARIABILIS; [7]): 83% and 83.2%
Percent control D. variabilis (D. VARIABILIS; [8]): 16.6%
Percent control D. variabilis (D. VARIABILIS; [9]): 32.7%
Percent control D. variabilis (D. VARIABILIS; [10]): 46.1%
Percent control D. variabilis (D. VARIABILIS; [11]): 2.7%
Percent control D. variabilis (D. VARIABILIS; [12]): −0.6%
Percent control D. variabilis (D. VARIABILIS; [13]): 24.7%
Percent control D. variabilis (D. VARIABILIS; [14]): 0.1%
flea kill compared with imidacloprid or the combination (in words) (FLEAS (Siphoneptera)): not as effective as either imidacloprid or the combination of imidacloprid and permethrin
Percent control fleas (FLEAS (Siphoneptera); [15]): 87.3%
Percent control fleas (FLEAS (Siphoneptera); [16]): 100%
Percent control fleas (FLEAS (Siphoneptera); [17]): 100%
Percent control fleas (FLEAS (Siphoneptera); [18]): 100%
Percent control fleas (FLEAS (Siphoneptera); [19]): 99.7%
Percent control fleas (FLEAS (Siphoneptera); [20]): 100%
Percent control fleas (FLEAS (Siphoneptera); [21]): 99.8%
Percent control fleas (FLEAS (Siphoneptera); [22]): 100%
Percent control fleas (FLEAS (Siphoneptera); [23]): 86%
Percent control fleas (FLEAS (Siphoneptera); [24]): 98%
Percent control fleas (FLEAS (Siphoneptera); Day −1 (pretreatment count)): 15.1%
time required to demonstrate a significant killing of fleas (FLEAS (Siphoneptera); single topical treatment): 3 days

O=[N+]([O-])N=C1NCCN1Cc1ccc(Cl)nc1 [Imidacloprid, 1-[(6-chloro-3-pyridinyl)methyl]-N-nitro-2-imidazolidinimine]
Percent control R. sanguineus (R. SANGUINEUS; [2]): 15.5%
Percent control R. sanguineus (R. SANGUINEUS; [3]): 42.4%
Percent control R. sanguineus (R. SANGUINEUS; [4]): 35.9%
Percent control R. sanguineus (R. SANGUINEUS; [5]): 67.2%
Percent control R. sanguineus (R. SANGUINEUS; [6]): 72.0%
Percent control R. sanguineus (R. SANGUINEUS; [7]): 66.6%
Percent control R. sanguineus (R. SANGUINEUS; [8]): 53.5%
Percent control R. sanguineus (R. SANGUINEUS; [9]): 58.2%
Percent control R. sanguineus (R. SANGUINEUS; [10]): 54.0%
Percent control R. sanguineus (R. SANGUINEUS; [11]): 41.5%
Percent control R. sanguineus (R. SANGUINEUS; [12]): 18.9%
Percent control R. sanguineus (R. SANGUINEUS; [13]): −5.3%
Percent control R. sanguineus (R. SANGUINEUS; [14]): 39.1%
Percent control D. variabilis (D. VARIABILIS; [2]): −12.0%
Percent control D. variabilis (D. VARIABILIS; [3]): 16.9%
Percent control D. variabilis (D. VARIABILIS; [4]): 30.9%
Percent control D. variabilis (D. VARIABILIS; [5]): 32.5%
Percent control D. variabilis (D. VARIABILIS; [6]): 35.3%
Percent control D. variabilis (D. VARIABILIS; [7]): 39.4%
Percent control D. variabilis (D. VARIABILIS; [8]): 50.3%
Percent control D. variabilis (D. VARIABILIS; [9]): 66.4%
Percent control D. variabilis (D. VARIABILIS; [10]): 68.4%
Percent control D. variabilis (D. VARIABILIS; [11]): 50.2%
Percent control D. variabilis (D. VARIABILIS; [12]): 40.1%
Percent control D. variabilis (D. VARIABILIS; [13]): 50.2%
Percent control D. variabilis (D. VARIABILIS; [14]): 38.8%
Percent control fleas (FLEAS (Siphoneptera); [15]): 100%
Percent control fleas (FLEAS (Siphoneptera); [16]): 100%
Percent control fleas (FLEAS (Siphoneptera); [17]): 100%
Percent control fleas (FLEAS (Siphoneptera); [18]): 100%
Percent control fleas (FLEAS (Siphoneptera); [19]): 100%
Percent control fleas (FLEAS (Siphoneptera); [20]): 100%
Percent control fleas (FLEAS (Siphoneptera); [21]): 100%
Percent control fleas (FLEAS (Siphoneptera); [22]): 99.6%
Percent control fleas (FLEAS (Siphoneptera); [23]): 98.6%
Percent control fleas (FLEAS (Siphoneptera); [24]): 99.4%
Percent control fleas (FLEAS (Siphoneptera); Day −1 (pretreatment count)): 5.4%
killing of fleas (in words) (FLEAS (Siphoneptera); from day 1 through day 30): killed essentially all of the fleas

CC1(C)C(C=C(Cl)Cl)C1C(=O)OCc1cccc(Oc2ccccc2)c1 (stereo not drawn) [Permethrin]
Percent control R. sanguineus (R. SANGUINEUS; [2]): 72.7%
Percent control R. sanguineus (R. SANGUINEUS; [3]): 75.0%
Percent control R. sanguineus (R. SANGUINEUS; [4]): 85.0%
Percent control R. sanguineus (R. SANGUINEUS; [5]): 99.4%
Percent control R. sanguineus (R. SANGUINEUS; [6]): 100%
Percent control R. sanguineus (R. SANGUINEUS; [7]): 99.0%
Percent control R. sanguineus (R. SANGUINEUS; [8]): 95.2%
Percent control R. sanguineus (R. SANGUINEUS; [9]): 98.9%
Percent control R. sanguineus (R. SANGUINEUS; [10]): 99.4%
Percent control R. sanguineus (R. SANGUINEUS; [11]): 89.4%
Percent control R. sanguineus (R. SANGUINEUS; [12]): 91.7%
Percent control R. sanguineus (R. SANGUINEUS; [13]): 91.5%
Percent control R. sanguineus (R. SANGUINEUS; [14]): 68.6%
Percent control D. variabilis (D. VARIABILIS; [2]): 36.2%
Percent control D. variabilis (D. VARIABILIS; [3]): 53.9%
Percent control D. variabilis (D. VARIABILIS; [4]): 75.3%
Percent control D. variabilis (D. VARIABILIS; [5]): 95.2%
Percent control D. variabilis (D. VARIABILIS; [6]): 96.1%
Percent control D. variabilis (D. VARIABILIS; [7]): 97.1%
Percent control D. variabilis (D. VARIABILIS; [8]): 91.5%
Percent control D. variabilis (D. VARIABILIS; [9]): 92.9%
Percent control D. variabilis (D. VARIABILIS; [10]): 96.8%
Percent control D. variabilis (D. VARIABILIS; [11]): 90.8%
Percent control D. variabilis (D. VARIABILIS; [12]): 85.1%
Percent control D. variabilis (D. VARIABILIS; [13]): 89.3%
Percent control D. variabilis (D. VARIABILIS; [14]): 79.3%
Percent control fleas (FLEAS (Siphoneptera); [15]): 89.8%
Percent control fleas (FLEAS (Siphoneptera); [16]): 93.9%
Percent control fleas (FLEAS (Siphoneptera); [17]): 79.4%
Percent control fleas (FLEAS (Siphoneptera); [18]): 87.8%
Percent control fleas (FLEAS (Siphoneptera); [19]): 71.9%
Percent control fleas (FLEAS (Siphoneptera); [20]): 65.1%
Percent control fleas (FLEAS (Siphoneptera); [21]): 52.9%
Percent control fleas (FLEAS (Siphoneptera); [22]): 41.9%
Percent control fleas (FLEAS (Siphoneptera); [23]): 43.9%
Percent control fleas (FLEAS (Siphoneptera); [24]): 7.7%
Percent control fleas (FLEAS (Siphoneptera); Day −1 (pretreatment count)): 1.5%
killing of fleas (in words) (FLEAS (Siphoneptera); from day 1 through day 21): some killing effect on fleas
time required to approach a 100% killing of ticks [1]: 7 days
